Test results: article PMC3441724, “Mechanistic Insights into Validoxylamine A 7'-Phosphate Synthesis by VldE Using the Structure of the Entire Product Complex” (PLoS ONE, 2012)

Tests used:
VldE = biological target: T1, VldE (Streptomyces hygroscopicus, UniProt Q15JG1); assay: X-ray crystal structure; assay type: binding; details: ternary complex with GDP, pH 8.0, open conformation
T1 construct: (His)6-tagged full-length protein, 497 residues per monomer, expressed in E. coli BL21(DE3) pLysS; homodimer; residues 1, 2 and 482-497 not modelled
T1 sequence (Q15JG1 1-497): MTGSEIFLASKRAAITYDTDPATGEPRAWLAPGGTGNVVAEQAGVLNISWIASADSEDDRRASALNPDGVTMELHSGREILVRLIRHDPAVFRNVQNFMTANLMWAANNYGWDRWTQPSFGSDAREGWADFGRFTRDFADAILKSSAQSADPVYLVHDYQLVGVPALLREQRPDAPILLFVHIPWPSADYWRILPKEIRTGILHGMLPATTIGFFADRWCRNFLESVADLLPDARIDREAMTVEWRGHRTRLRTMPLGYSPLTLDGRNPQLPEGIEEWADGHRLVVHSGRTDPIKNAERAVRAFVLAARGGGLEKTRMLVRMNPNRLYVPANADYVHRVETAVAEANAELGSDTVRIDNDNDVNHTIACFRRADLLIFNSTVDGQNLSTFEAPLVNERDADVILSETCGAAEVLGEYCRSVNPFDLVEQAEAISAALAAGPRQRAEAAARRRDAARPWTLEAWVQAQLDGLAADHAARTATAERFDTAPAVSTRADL

[1] = biological target: the molecule itself; assay: crystal structure; sitting drop vapor diffusion, 293 K, Tris-HCl pH 8.0 with polyethylene glycol 3,350; two monomers modeled within the asymmetric unit (apo, GDP, GDP+VDO), six monomers in VldE•GDP•TRE

For `OC[C@H]1O[C@H](O[C@H]2O[C@H](CO)[C@@H](O)[C@H](O)[C@H]2O)[C@H](O)[C@@H](O)[C@@H]1O` [TRE, trehalose], which X-ray crystal structure (VldE; 2.81 Å, 3% trehalose, 1 mM GDP, 20 mM MgCl2, cyclitol binding sites, bound in two of six monomers) is on record?
Its X-ray crystal structure is “structure of VldE in complex with both GDP and trehalose (VldE•GDP•TRE)”.

Which X-ray crystal structure (VldE; 2.11 Å, crystal soaked with 5 mM GDP and 10 mM VDO, cyclitol (donor and acceptor) sites) does the source give for `O=P(O)(O)OC[C@H]1C[C@H](N[C@H]2C=C(CO)[C@@H](O)[C@H](O)[C@H]2O)[C@H](O)[C@@H](O)[C@@H]1O` [VDO, validoxylamine A 7′-phosphate] here?
The X-ray crystal structure was “The first crystallographic structure of VldE in complex with the entirety of its products”.

B1: VldE from S. hygroscopicus subsp. limoneus (enzyme)
chain: T1 sequence (Q15JG1 1-497)
notes: VldE, pseudo-glycosyltransferase of Streptomyces hygroscopicus subsp. limoneus; 994 possible residues for two monomers (497 each); the apo model lacks residues 1, 2 and 482-497; also called pseudo-glycosyltransferase VldE; (His)6-tagged VldE
Does B1 bind [1]?
Result: binds
